# Test results taken from PubChem BioAssay (NCI).
#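 The compound was tested at five concentrations on cells cultured in 96-well plates, with a 48-hour exposure period. TGI: concentration producing complete growth inhibition.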
# How the values were obtained:
# Assay in all cases: NCI-60 cell line screen, 48 h
# [1] = test system: MOLT-4 leukemia
# [2] = test system: A549 NSCLC
# [3] = test system: CCRF-CEM leukemia
# [4] = test system: SN12C renal
# [5] = test system: SF-539 CNS
# [6] = test system: NCI-H522 lung
# [7] = test system: HT29 colon
# [8] = test system: HCC-2998 colon
# [9] = test system: T-47D breast
# [10] = test system: BT-549 breast
# [11] = test system: SK-MEL-5 melanoma
# [12] = test system: NCI/ADR-RES ovarian
# [13] = test system: LOX IMVI melanoma
# [14] = test system: HS 578T breast
# [15] = test system: TK-10 renal
# [16] = test system: KM12 colon
# [17] = test system: PC-3 prostate
# [18] = test system: NCI-H460 lung
# [19] = test system: RXF 393 renal
# [20] = test system: UACC-62 melanoma
# [21] = test system: SK-MEL-28 melanoma
# [22] = test system: MALME-3M melanoma
# [23] = test system: 786-0 renal
# [24] = test system: HCT-15 colon
# [25] = test system: MCF7 breast
# [26] = test system: MDA-MB-435
# [27] = test system: OVCAR-3 ovarian
# [28] = test system: DU-145 prostate
# [29] = test system: K-562 leukemia
# [30] = test system: RPMI-8226 leukemia
# [31] = test system: COLO 205 colon
# [32] = test system: SF-295 CNS
# [33] = test system: HL-60(TB) leukemia
# [34] = test system: CAKI-1 renal
# [35] = test system: MDA-N
# [36] = test system: U251 CNS
# [37] = test system: ACHN renal
# [38] = test system: MDA-MB-231 breast
# [39] = test system: UACC-257 melanoma
# [40] = test system: M14 melanoma
# [41] = test system: IGROV1 ovarian
# [42] = test system: OVCAR-5 ovarian
# [43] = test system: OVCAR-4 ovarian
# [44] = test system: OVCAR-8 ovarian
# [45] = test system: NCI-H226 lung
# [46] = test system: SNB-75 CNS
# [47] = test system: SNB-19 CNS
# [48] = test system: NCI-H23 lung
# [49] = test system: EKVX NSCLC
# [50] = test system: SK-OV-3 ovarian
# [51] = test system: SK-MEL-2 melanoma
# [52] = test system: HCT-116 colon
# [53] = test system: SW-620 colon
# [54] = test system: SF-268 CNS
# [55] = test system: HOP-62 NSCLC
# [56] = test system: A498 renal
# [57] = test system: HOP-92 NSCLC
# [58] = test system: UO-31 renal
smiles,measurement,setting,value
NC(=S)NS(=O)(=O)c1ccc(Cl)cc1,TGI,[1],> 100 µM
same,TGI,[2],> 100 µM
same,TGI,[3],> 100 µM
same,TGI,[4],> 100 µM
same,TGI,[5],> 100 µM
same,TGI,[6],> 100 µM
same,TGI,[7],> 100 µM
same,TGI,[8],> 100 µM
same,TGI,[9],> 100 µM
same,TGI,[10],> 100 µM
same,TGI,[11],> 100 µM
same,TGI,[12],> 100 µM
same,TGI,[13],> 100 µM
same,TGI,[14],> 100 µM
same,TGI,[15],> 100 µM
same,TGI,[16],> 100 µM
same,TGI,[17],> 100 µM
same,TGI,[18],> 100 µM
same,TGI,[19],> 100 µM
same,TGI,[20],> 100 µM
same,TGI,[21],> 100 µM
same,TGI,[22],> 100 µM
same,TGI,[23],> 100 µM
same,TGI,[24],> 100 µM
same,TGI,[25],> 100 µM
same,TGI,[26],> 100 µM
same,TGI,[27],> 100 µM
same,TGI,[28],> 100 µM
same,TGI,[29],> 100 µM
same,TGI,[30],> 100 µM
same,TGI,[31],> 100 µM
same,TGI,[32],> 100 µM
same,TGI,[33],> 100 µM
same,TGI,[34],> 100 µM
same,TGI,[35],> 100 µM
same,TGI,[36],> 100 µM
same,TGI,[37],> 100 µM
same,TGI,[38],> 100 µM
same,TGI,[39],> 100 µM
same,TGI,[40],> 100 µM
same,TGI,[41],> 100 µM
same,TGI,[42],> 100 µM
same,TGI,[43],> 100 µM
same,TGI,[44],> 100 µM
same,TGI,[45],> 100 µM
same,TGI,[46],> 100 µM
same,TGI,[47],> 100 µM
same,TGI,[48],> 100 µM
same,TGI,[49],> 100 µM
same,TGI,[50],> 100 µM
same,TGI,[51],> 100 µM
same,TGI,[52],> 100 µM
same,TGI,[53],> 100 µM
same,TGI,[54],> 100 µM
same,TGI,[55],> 100 µM
CN1C/C(=C\c2cccs2)C(=O)/C(=C/c2cccs2)C1,TGI,[1],47.2 µM
same,TGI,[2],> 100 µM
same,TGI,[3],26.7 µM
same,TGI,[4],76.5 µM
same,TGI,[6],> 100 µM
same,TGI,[7],50.5 µM
same,TGI,[8],45.5 µM
same,TGI,[9],92.6 µM
same,TGI,[10],72.1 µM
same,TGI,[11],> 100 µM
same,TGI,[12],94.5 µM
same,TGI,[13],41 µM
same,TGI,[14],> 100 µM
same,TGI,[15],> 100 µM
same,TGI,[16],83.3 µM
same,TGI,[17],> 100 µM
same,TGI,[56],71.2 µM
same,TGI,[18],> 100 µM
same,TGI,[19],54.8 µM
same,TGI,[20],> 100 µM
same,TGI,[21],> 100 µM
same,TGI,[22],> 100 µM
same,TGI,[23],49.2 µM
same,TGI,[24],> 100 µM
same,TGI,[25],> 100 µM
same,TGI,[57],67.3 µM
same,TGI,[26],34.1 µM
same,TGI,[27],> 100 µM
same,TGI,[28],> 100 µM
same,TGI,[29],> 100 µM
same,TGI,[30],32.3 µM
same,TGI,[31],91.7 µM
same,TGI,[32],> 100 µM
same,TGI,[34],> 100 µM
same,TGI,[35],61.7 µM
same,TGI,[36],30.7 µM
same,TGI,[37],66.1 µM
same,TGI,[38],48.3 µM
same,TGI,[39],> 100 µM
same,TGI,[40],82.9 µM
same,TGI,[41],92.2 µM
same,TGI,[42],66.8 µM
same,TGI,[43],55.4 µM
same,TGI,[44],74 µM
same,TGI,[45],> 100 µM
same,TGI,[47],> 100 µM
same,TGI,[48],> 100 µM
same,TGI,[49],75.8 µM
same,TGI,[58],45 µM
same,TGI,[50],> 100 µM
same,TGI,[51],48.9 µM
same,TGI,[52],34.4 µM
same,TGI,[53],> 100 µM
same,TGI,[54],> 100 µM
same,TGI,[55],> 100 µM
